The METLIN SMRT retention time set (Domingo-Almenara et al. 2019)

Assay: gradient 5% acetonitrile 3 min, to 50% in 2 min, to 85% in 15 min, held 3 min, 100 µL/min
Conditions: column: Zorbax Extend-C18 2.1 x 50 mm; eluents: water / acetonitrile, 0.1% formic acid
How it was run: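 Retention times come from adduct peaks that were picked computationally and then checked by hand. The standards, pure and pooled in mixtures of ~100 molecules, were run on a Zorbax Extend-C18 column (2.1 × 50 mm, 1.8 μm) at 100 μL/min with water and acetonitrile, each with 0.1% formic acid. Detection was by quadrupole time-of-flight mass spectrometry in positive and negative ionization mode, with a dead volume of 40 μL and a dwell volume of 900 μL.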

| SMILES | RP-LC retention time |
| --- | --- |
| CCn1ccc2sc(C)c(C(=O)NCc3ccc(Cl)cc3)c2c1=O | 891 s |
| CCOc1ccc(S(=O)(=O)N2CCN(c3cc(C)nc(NC4CCCCC4)n3)CC2)cc1 | 839 s |
| Cc1ccc(NC(=O)N2CCc3nc(-c4ccccc4)ncc3C2)cc1F | 988 s |
| CC1=C(C(=O)Nc2ccccc2F)C(c2ccccc2Br)NC(=O)N1 (stereo not drawn) | 672 s |
| COc1ccc(C(=O)N(C2CCCC2)C2(C(=O)NCc3ccccc3)CCN(C(C)=O)CC2)cc1 | 885 s |
| Cc1sc(-c2cc(C(F)(F)F)[nH]n2)cc1S(=O)(=O)N1CCCCCC1 | 1110 s |
| O=C(c1cccs1)N1CCC(n2c(-c3ccoc3)nc3cccnc32)C1 (stereo not drawn) | 685 s |
| CCN1C(=O)Cc2ccccc2C1C(=O)NCc1ccc(Br)cc1 (stereo not drawn) | 802 s |
| CC(C)(C)c1csc(-c2csc(S(=O)(=O)NCc3ccc(Br)cc3)c2)n1 | 1300 s |
| COC(=O)c1cccc(C(=O)Nc2ccc(C)c(C)c2)n1 | 910 s |
| CC(=O)Nc1ccc(Br)cc1 | 680 s |
| CCOc1ncccc1CNC(=O)c1cnccn1 | 600 s |
| O=C(Nc1ccc(N2CCN(c3ccccc3)C2=O)nc1)c1ccccc1 | 906 s |
| CCOc1ccc(CN2CCC3(CC2)CC(O)CCO3)cc1OC (stereo not drawn) | 583 s |
| COc1ccc(NC(=O)c2cnc3c(c2)c(=O)n(C)c(=O)n3-c2ccccc2)cc1Cl | 916 s |
| CCN1C(=O)C2(CCN(S(=O)(=O)c3cc(F)ccc3C)CC2)c2ccccc21 | 1130 s |
| COC(=O)C1=CN(c2ccccc2)c2ccc(F)cc2S1(=O)=O | 817 s |
| O=C(NCCc1noc(C2CC2)n1)c1ccoc1 | 664 s |
| O=C(NCc1cccs1)c1ccc2c(c1)NC(=O)C1CCCCN21 (stereo not drawn) | 688 s |

| SMILES | RP-LC retention time |
| --- | --- |
| O=C(C1CCCC1)N1CC(c2nc(-c3ccccc3)no2)C2(CCOCC2)C1 (stereo not drawn) | 923 s |
| Cn1cc(S(=O)(=O)N2CCC(C(=O)Nc3ccc4c(c3)OCO4)CC2)cc1C(=O)N1CCCC1 | 716 s |
| Cc1ccc(C)c(N2CCN(c3ccnc(SCC(=O)NCc4ccccc4Cl)n3)CC2)c1 | 952 s |
| Cc1nc2cccnc2n1C1CCN(C(=O)Nc2cccc(F)c2)CC1 | 947 s |
| CCSc1nnc(-c2nn(C)c3c2CN(C(=O)c2cccc(Cl)c2)CC3)n1C | 788 s |
| CC1CCN(CCCNC(=O)C2CCN(S(=O)(=O)c3ccc4c(c3)sc(=O)n4C)CC2)CC1 | 1060 s |
| Cc1ccccc1CNC(=O)C1(C)CCCN(C(=O)NCCc2ccccc2)C1 (stereo not drawn) | 897 s |
| CCN(C(=O)Cn1c(C(C)C)nc2c(c1=O)CN(Cc1ccccc1)CC2)c1ccccc1 | 757 s |
| Cc1ccc(CN2CCc3nc(N4CCN(c5ccccc5F)CC4)ncc3C2)s1 | 799 s |
| COc1ccccc1CCC(=O)N1CCc2cc(-c3ccno3)ccc21 | 1040 s |
| c1ccc(-c2ccc(CNCC3CCCO3)o2)cc1 (stereo not drawn) | 642 s |
| Cc1cccc(NS(=O)(=O)c2ccc(-c3c(C)noc3C)cc2)c1 | 881 s |
| CCCOC(=O)c1cccc(Nc2nc(C(=O)OCC)nc3ccccc23)c1 | 955 s |
| Fc1ccc(C(c2nnc(-c3ccccc3)o2)N2CCN(c3ccccn3)CC2)c(Cl)c1 (stereo not drawn) | 978 s |
| COc1cccc(CNC(=O)C2CCc3nc(N4CCCCC4)ncc3C2)c1 (stereo not drawn) | 665 s |
| COc1cc(NC(=O)N2CCC(OC3CCN(S(C)(=O)=O)CC3)CC2)cc(OC)c1 | 704 s |
| COCCNc1nc(Nc2ccc(C)c(C)c2)c2nccnc2n1 | 597 s |
| CCC(=O)N(C)CCc1noc(-c2ccc(C(=O)NCCCOC)cc2)n1 | 650 s |
| COC(=O)c1cc(S(=O)(=O)N2CCCC2C(=O)Nc2ccc(OC)cc2)cn1C (stereo not drawn) | 818 s |
